# ChEMBL document CHEMBL1201862, “PubChem BioAssay data set” (2004)
#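 Following 48 hours of exposure in 96-well plates, responses at five concentrations were used to interpolate endpoints linearly. At the GI50, growth is halved.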 Active and inactive are the calls of the source. No stated cut-off is given here; in the data, active = GI50 up to about 1.1 µM and inactive = higher. Starred links: 1 amine or outer side, 2 acyl side, 3 side chain; linkers in the order of their positions; H or OH if unused. Positions of bridges follow the written chain, without caps; N, C: chain ends. Non-standard residues stand in square brackets, D forms with d. Residues, ends and D or L forms follow the SMILES beside them. Chains are numbered I, II in the order given. Actinocin(9to1) = Cc1c2oc3c(C)ccc(C(=O)[*:1])c3nc-2c(C(=O)[*:2])c(N)c1=O; NMeV = CN[CH](C(=O)O)C(C)C; Sar = CNCC(=O)O
# What was measured:
# Experiment in all cases: NCI-60 cell line screen, 48 h
# [1] = test system: ACHN
# [2] = test system: CAKI-1
# [3] = test system: HCT-116
# [4] = test system: HCT-15
# [5] = test system: HOP-92
# [6] = test system: IGROV-1
# [7] = test system: LOX IMVI
# [8] = test system: M14
# [9] = test system: MDA-MB-231
# [10] = test system: MOLT-4
# [11] = test system: NCI-H522
# [12] = test system: NCI/ADR-RES
# [13] = test system: OVCAR-3
# [14] = test system: OVCAR-4
# [15] = test system: SW-620
# [16] = test system: SNB-19
# [17] = test system: UACC-62
# [18] = test system: BT-549
SMILES,GI50 [1],GI50 [2],GI50 [3],GI50 [4] [µM],GI50 [5],GI50 [6],GI50 [7],GI50 [8],GI50 [9],GI50 [10],GI50 [11],GI50 [12],GI50 [13],GI50 [14],GI50 [15],GI50 [16],GI50 [17],GI50 [18]
CCOC(=O)Cn1nnc2cc(Nc3c(C)[n+]([O-])c4cc(F)c(OCC)cc4[n+]3[O-])ccc21,35.9 µM (inactive),> 100 µM (inactive),> 100 µM (inactive),> 100,13.6 µM (inactive),96.2 µM (inactive),> 100 µM (inactive),> 100 µM (inactive),27.1 µM (inactive),0.273 µM (active),> 100 µM (inactive),> 100 µM (inactive),> 100 µM (inactive),> 100 µM (inactive),> 100 µM (inactive),,,
O=C(NC1C(=O)NC(CCc2ccccc2)NC1=O)OCc1ccccc1 (configuration not stated),> 100 µM (inactive),> 100 µM (inactive),> 100 µM (inactive),> 100,> 100 µM (inactive),> 100 µM (inactive),> 100 µM (inactive),> 100 µM (inactive),> 100 µM (inactive),> 100 µM (inactive),> 100 µM (inactive),> 100 µM (inactive),> 100 µM (inactive),> 100 µM (inactive),> 100 µM (inactive),> 100 µM (inactive),> 100 µM (inactive),
COc1ccc(-c2oc3cc(OC(C)=O)cc(OC(C)=O)c3c(=O)c2OC)cc1,17 µM (inactive),4.04 µM (inactive),21 µM (inactive),20.8,,16.2 µM (inactive),14.5 µM (inactive),14.5 µM (inactive),22 µM (inactive),20.2 µM (inactive),2.12 µM (inactive),14.7 µM (inactive),15 µM (inactive),,16.1 µM (inactive),19 µM (inactive),4.19 µM (inactive),
Cc1ccc(S(=O)(=O)N2CCCN(S(=O)(=O)c3ccc(C)cc3)CC2)cc1,> 100 µM (inactive),,> 100 µM (inactive),> 100,> 100 µM (inactive),,0.0578 µM (active),> 100 µM (inactive),> 100 µM (inactive),> 100 µM (inactive),> 100 µM (inactive),> 100 µM (inactive),> 100 µM (inactive),> 100 µM (inactive),> 100 µM (inactive),> 100 µM (inactive),,
COc1ccc2cc(C(=O)NCCCNC(=O)c3ccc4c(OC)c(OC)ccc4c3)ccc2c1OC,> 100 µM (inactive),> 100 µM (inactive),> 100 µM (inactive),> 100,,,> 100 µM (inactive),,> 100 µM (inactive),> 100 µM (inactive),> 100 µM (inactive),> 100 µM (inactive),> 100 µM (inactive),> 100 µM (inactive),> 100 µM (inactive),> 100 µM (inactive),> 100 µM (inactive),
C/C(=N\NC(=S)N(C)CCN(C)C(=S)N/N=C(\C)c1ccccn1)c1ccccn1,0.366 µM (active),1.78 µM (inactive),0.281 µM (active),0.45,2.72 µM (inactive),0.465 µM (active),0.811 µM (active),> 100 µM (inactive),0.246 µM (active),0.479 µM (active),0.731 µM (active),0.346 µM (active),0.174 µM (active),0.298 µM (active),0.662 µM (active),3.04 µM (inactive),2.31 µM (inactive),
"Cc1c2oc3c(C)ccc(C(=O)NC4C(=O)NC(Cc5ccc(O)cc5)C(=O)N5CCCC5C(=O)N(C)CC(=O)N(C)C(C(C)C)C(=O)OC4C)c3nc-2c(C(=O)NC2C(=O)NC(Cc3ccc(O)cc3)C(=O)N3CCCC3C(=O)N(C)CC(=O)N(C)C(C(C)C)C(=O)OC2C)c(N)c1=O (configuration not stated) (I: TYP[Sar][NMeV] / II: TYP[Sar][NMeV]; ester I:1-I:C, II:1-II:C; linker I:N-II:N via Actinocin(9to1); configuration not given here)",0.397 µM (active),3.57 µM (inactive),0.11 µM (active),8.65,,0.149 µM (active),0.0859 µM (active),2.55 µM (inactive),15.6 µM (inactive),0.178 µM (active),0.877 µM (active),> 94 µM (inactive),1.63 µM (inactive),1.14 µM (inactive),0.33 µM (active),0.449 µM (active),1.14 µM (inactive),
C=C1C(=O)O[C@H]2C1C[C@H](O)[C@@]1(C)OC1CC[C@@]1(C)O[C@H]21 (some centres not stated),18.1 µM (inactive),17.7 µM (inactive),16.6 µM (inactive),18.7,20.6 µM (inactive),14.9 µM (inactive),,15.5 µM (inactive),,10.1 µM (inactive),2.79 µM (inactive),20.9 µM (inactive),,13.6 µM (inactive),13.6 µM (inactive),,14.6 µM (inactive),13.8 µM (inactive)
O=C1OC[C@@H]2Cc3c([nH]c4ccccc34)[C@@H](c3cc(O)c(O)c(O)c3)N12,31.2 µM (inactive),8.67 µM (inactive),25.3 µM (inactive),31,> 100 µM (inactive),25 µM (inactive),,15.2 µM (inactive),20.7 µM (inactive),32.6 µM (inactive),5.09 µM (inactive),21.8 µM (inactive),,12.9 µM (inactive),21.3 µM (inactive),24 µM (inactive),8.93 µM (inactive),
CCCCC[C@H]1CCCCCCCCCC(=O)OC2C(O[C@@H]3OC(C)[C@H](OC(=O)[C@@H](C)CC)C(O[C@@H]4OC(C)[C@H](O)C(O)[C@@H]4O)[C@@H]3OC(=O)[C@H](C)CC)[C@H](OC3C(O)[C@@H](O)C(C)O[C@H]3O1)OC(CO)[C@H]2O (some centres not stated),> 10 µM (inactive),17.3 µM (inactive),16.1 µM (inactive),16.7,22.3 µM (inactive),17.1 µM (inactive),17 µM (inactive),18.2 µM (inactive),16.8 µM (inactive),15.6 µM (inactive),17.7 µM (inactive),18.8 µM (inactive),17.9 µM (inactive),19.2 µM (inactive),16.5 µM (inactive),16.1 µM (inactive),16.9 µM (inactive),
CCOC(=O)/C=C/c1nc(C#N)c(N)o1,> 100 µM (inactive),> 100 µM (inactive),> 100 µM (inactive),> 100,> 100 µM (inactive),> 100 µM (inactive),> 100 µM (inactive),> 100 µM (inactive),> 100 µM (inactive),> 100 µM (inactive),,,,,> 100 µM (inactive),> 100 µM (inactive),> 100 µM (inactive),
CCC(C(=O)c1ccc(OC)c(OC)c1)N(C(=O)C(F)(F)F)C(C)c1ccccc1 (configuration not stated),> 100 µM (inactive),> 100 µM (inactive),> 100 µM (inactive),> 100,,> 100 µM (inactive),> 100 µM (inactive),> 100 µM (inactive),> 100 µM (inactive),> 100 µM (inactive),> 100 µM (inactive),> 100 µM (inactive),> 100 µM (inactive),,> 100 µM (inactive),> 100 µM (inactive),> 100 µM (inactive),
Cc1nc2[nH]ncn2c(=O)c1CCCl,> 10 µM (inactive),> 10 µM (inactive),> 10 µM (inactive),> 10,,> 10 µM (inactive),> 10 µM (inactive),> 10 µM (inactive),> 10 µM (inactive),> 10 µM (inactive),> 10 µM (inactive),> 10 µM (inactive),,> 10 µM (inactive),> 10 µM (inactive),> 10 µM (inactive),> 10 µM (inactive),
CC(=O)/C=C/C1=C(C)CCCC1(C)CC(C)C (configuration not stated),22.1 µM (inactive),42.8 µM (inactive),25.5 µM (inactive),15.1,6.73 µM (inactive),29.3 µM (inactive),18.6 µM (inactive),31.6 µM (inactive),70.8 µM (inactive),17.7 µM (inactive),18.4 µM (inactive),,26.5 µM (inactive),63.8 µM (inactive),18.6 µM (inactive),27.4 µM (inactive),22.4 µM (inactive),
O=c1[nH]c(=S)[nH]n1C(=S)n1[nH]c(=S)[nH]c1=O,> 100 µM (inactive),> 100 µM (inactive),> 100 µM (inactive),> 100,> 100 µM (inactive),> 100 µM (inactive),60.4 µM (inactive),> 100 µM (inactive),> 100 µM (inactive),> 100 µM (inactive),> 100 µM (inactive),> 100 µM (inactive),41.7 µM (inactive),> 100 µM (inactive),> 100 µM (inactive),> 100 µM (inactive),> 100 µM (inactive),
N#C/C(=C\c1cc(F)cc(F)c1)c1ccccn1,30.6 µM (inactive),39.5 µM (inactive),27.9 µM (inactive),15.4,20.5 µM (inactive),54.8 µM (inactive),,25.8 µM (inactive),,13.7 µM (inactive),24.2 µM (inactive),23.6 µM (inactive),36.1 µM (inactive),45.8 µM (inactive),> 10 µM (inactive),45.6 µM (inactive),45.1 µM (inactive),30.1 µM (inactive)
COC(=O)C1C(C(=O)OC)N(Cc2ccccc2)C(=O)N1Cc1ccccc1 (configuration not stated),> 100 µM (inactive),99.5 µM (inactive),> 100 µM (inactive),,> 100 µM (inactive),85.7 µM (inactive),> 100 µM (inactive),> 100 µM (inactive),,22.8 µM (inactive),37.5 µM (inactive),> 100 µM (inactive),61.8 µM (inactive),> 100 µM (inactive),> 100 µM (inactive),> 100 µM (inactive),64.6 µM (inactive),> 100 µM (inactive)
